Structures are written as SMILES. ≈ marks a conversion by molar mass, not a printed value. Calls of active or inactive are those of the source.

Results on ten molecules are retold here after ChEMBL document CHEMBL5584352, “Targeted Discovery of a Natural ortho-Quinone Methide Precursor and Green Generation of Its Oligomers” (J Nat Prod, 2024).

Assay [1] deals with Staphylococcus aureus. The experiment in a line: Antibacterial activity against Staphylococcus aureus 209P assessed as reduction in bacterial growth incubated for 24 hrs by two fold serial dilution method. Format: functional.
In assay [2] the test system is HeLa. The experiment in a line: Cytotoxicity against human HeLa cells assessed as reduction in cell viability incubated for 24 hrs by MTT assay. Format: functional, cell-based.
Assay [3] deals with Escherichia coli. The experiment in a line: Antibacterial activity against Escherichia coli ATCC 0111 assessed as reduction in bacterial growth incubated for 24 hrs by two fold serial dilution method. Format: functional, organism-based.

Take `CC(=O)[C@@H](C)c1cc(O)c(Cc2c(C)c(C)c(O)c(C)c2O)c(O)c1C=O`: the outcome in assay [1], in assay [2] and in assay [3] was inactive.
As for `CC(=O)[C@@H](C)c1cc(O)c(Cc2c(O)cc(O)c(Cc3c(O)cc([C@H](C)C(C)=O)c(C=O)c3O)c2C)c(O)c1C=O`, the result in assay [1], in assay [2] and in assay [3] was inactive.
In the case of `Cc1cc(=O)c2c(O)c3c(O)cc(O)cc3cc2o1`, the outcome in assay [1], in assay [2] and in assay [3] was inactive.
Consider `CC(=O)[C@@H](C)c1cc(O)c(Cc2c(C)cc(O)cc2O)c(O)c1C=O`, for which the result in assay [1], in assay [2] and in assay [3] was inactive.
On to `CC(=O)[C@@H](C)c1cc(O)c(Cc2c(O)cc(O)c3c(O)c4c(=O)cc(C)oc4cc23)c(O)c1C=O`, for which the result in assay [1], in assay [2] and in assay [3] was inactive.
`Cc1cc(O)c(C)c(O)c1C`: the result in assay [1], in assay [2] and in assay [3] was inactive.
The MIC is the smallest concentration in the dilution series that meets the test's criterion for growth inhibition. A word on the IC50: it is the concentration needed to halve the response being measured. In the case of `CC(=O)[C@@H](C)c1cc(O)c(Cc2c3cc(O)cc(O)c3c(O)c3c(=O)cc(C)oc23)c(O)c1C=O`, the MIC in assay [1] was 32 µg/mL (≈ 66.9 µM). The IC50 in assay [2] turned out to be 12.4 µM. In assay [3], the outcome was inactive.
As to `Cc1c(C)c(C(=O)O)c(O)c(C)c1O`, the result in assay [1], in assay [2] and in assay [3] was inactive.
For `CC(=O)[C@@H](C)c1cc(O)c(CO)c(O)c1C=O`, the outcome in assay [1], in assay [2] and in assay [3] was inactive.
As for `CC(=O)[C@@H](C)c1cc(O)c(C)c(O)c1C=O`, the result in assay [1], in assay [2] and in assay [3] was inactive.
